The text below walks through data of ChEMBL document CHEMBL5634125, “Investigation of novel 5'-amino adenosine derivatives with potential anti-Zika virus activity” (Eur J Med Chem, 2023).

Data set [1] relates to Zika virus. In words: Antiviral activity against Zika virus infected in golden hamster BHK cells assessed as inhibition of virus induced cytopathic effect incubated for 6 to 8 days by CellTiter-Glo luminescent cell viability assay. It counts as functional, organism-based.
Data set [2] relates to Zika virus. In words: Inhibition of Zika virus NS5 MTase activity at 50 uM by chemiluminescence-based enzymatic assay system relative to control.
Data set [3] has as its system Zika virus. Description: Antiviral activity against Zika virus infected in infected in golden hamster BHK cells assessed as inhibition of viral RNA production at stage III incubated for 24 hrs by qRT-PCR analysis. It counts as functional, organism-based.
In data set [4] the test system is Zika virus. In words: Antiviral activity against Zika virus infected in golden hamster BHK cells assessed as inhibition of viral RNA production at stage IV pre-infected with virus for 2 hrs followed by compound addition and measured 24 hrs post infection by qRT-PCR analysis. It counts as functional, organism-based. As to conditions: time 22.0 hrs. (In general: Real-time PCR tracks product formation cycle by cycle.)

For data set [5], the system named is Zika virus. In words: Antiviral activity against Zika virus infected in golden hamster BHK-21 cells assessed as inhibition of viral replication incubated for 72 hrs by Dual-luciferase reporter assay system. It counts as functional, organism-based. The note with it: BHK-21, 72 h.
The nature of data set [6]: MRT in ICR mouse at 25 mg/kg, po administered as single dose and measured upto 24 hrs by LC-MS/MS analysis. It counts as ADME, organism-based. As to conditions: in vivo.
Data set [7] is described as follows: Acute toxicity in A129 mouse assessed as animal death at 50 mg/kg, po measured after 2 weeks. It counts as organism-based. As to conditions: in vivo, 336 h.
Data set [8] is described as follows: Acute toxicity in A129 mouse assessed as animal death at 100 mg/kg, po measured after 2 weeks. It counts as organism-based. As to conditions: in vivo, 336 h.
The nature of data set [9]: Half-life in ICR mouse at 25 mg/kg, po administered as single dose and measured upto 24 hrs by LC-MS/MS analysis. The data set is classed as ADME, organism-based. The note with it: in vivo.
Data set [10] can be described thus: Tmax in ICR mouse at 25 mg/kg, po administered as single dose and measured upto 24 hrs by LC-MS/MS analysis. As to conditions: in vivo. It counts as ADME, organism-based.
Data set [11] is described as follows: Cmax in ICR mouse at 25 mg/kg, po administered as single dose and measured upto 24 hrs by LC-MS/MS analysis. It counts as ADME, organism-based. As to conditions: in vivo.
Data set [12] can be described thus: Acute toxicity in po dosed ICR mouse assessed as lethal dose measured after 2 weeks. As to conditions: in vivo. The data set is classed as organism-based.
A short description of data set [13]: AUC (0 to t) in ICR mouse at 25 mg/kg, po administered as single dose and measured upto 24 hrs by LC-MS/MS analysis. The data set is classed as ADME, organism-based. As to conditions: in vivo.

Activity calls are given as the source filed them. No cut-off for these calls is given here. A value given as a limit tells only on which side of the number the result lay.

As for `Cc1cccc(CNc2ncnc3c2ncn3[C@@H]2O[C@H](CNCc3ccc(C(F)(F)F)cc3)[C@@H](O)[C@H]2O)c1`, the IC50 in [1] came out at 5.55 µM.
In [2], `Nc1ncnc2c1ncn2[C@@H]1O[C@H](C[C@@H](N)CC[C@H](N)C(=O)O)[C@@H](O)[C@H]1O` registered an inhibition of 67.5%.
In the case of `O[C@@H]1[C@H](O)[C@@H](CNCc2ccc(OC(F)(F)F)cc2)O[C@H]1n1cnc2c(NCc3cccc(Cl)c3)ncnc21`, the IC50 in data set [1] turned out to be 2.04 µM.
`O=C(NC[C@H]1O[C@@H](n2cnc3c(NCc4cccc(Cl)c4)ncnc32)[C@H](O)[C@@H]1O)c1ccc(F)cc1`: the IC50 in [1] was more than 50 µM.
For `O[C@@H]1[C@H](O)[C@@H](CNC2CCCC2)O[C@H]1n1cnc2c(NCc3cccc(Cl)c3)ncnc21`, in data set [1], the IC50 is 8.49 µM.
The same measure, in the same setting: to `O[C@@H]1[C@H](O)[C@@H](CNCc2cccc3ccccc23)O[C@H]1n1cnc2c(NCc3cccc(Cl)c3)ncnc21` belongs 3.58 µM.
On to `O[C@@H]1[C@H](O)[C@@H](CNCc2cccs2)O[C@H]1n1cnc2c(NCc3cccc(Cl)c3)ncnc21`, for which the IC50 in [1] stood at 6.06 µM.
For the compound `O[C@@H]1[C@H](O)[C@@H](CNCc2ccc(C(F)(F)F)cc2)O[C@H]1n1cnc2c(NCc3cccc(F)c3)ncnc21`, in data set [1], the IC50 amounted to 4.18 µM.
Same read-out and setting: to `O[C@@H]1[C@H](O)[C@@H](CNCc2ccc(C(F)(F)F)cc2)O[C@H]1n1cnc2c(NCC3CCCCC3)ncnc21` belongs more than 50 µM.
For `COc1ccc(CNC[C@H]2O[C@@H](n3cnc4c(NCc5cccc(Cl)c5)ncnc43)[C@H](O)[C@@H]2O)cc1`, in [1], the IC50 came out at 5.01 µM.
With `CCN(CC)C[C@H]1O[C@@H](n2cnc3c(NCc4cccc(Cl)c4)ncnc32)[C@H](O)[C@@H]1O`, the IC50 in data set [1] stood at 8.43 µM.
In the case of `CCN(C)c1ncnc2c1ncn2[C@@H]1O[C@H](CNCc2ccc(C(F)(F)F)cc2)[C@@H](O)[C@H]1O`, the IC50 in data set [1] amounted to 24.9 µM.
Regarding `CNc1ncnc2c1ncn2[C@@H]1O[C@H](CNCc2ccc(C(F)(F)F)cc2)[C@@H](O)[C@H]1O`, the IC50 in data set [1] is more than 50 µM.
For the compound `O[C@@H]1[C@H](O)[C@@H](CNCc2ccc(C(F)(F)F)cc2)O[C@H]1n1cnc2c(NCc3ccco3)ncnc21`, in data set [1], the IC50 was 13.2 µM.
As to `C#C[C@@]1(O)[C@H](O)[C@@H](CO)O[C@H]1n1ccc2c(N)ncnc21`, the outcome in data set [3] and in data set [4] was Active. Besides, in [1], the half-inhibitory concentration (IC50) was found to be 0.85 µM.
As for `CN(Cc1ccc(F)cc1)C[C@H]1O[C@@H](n2cnc3c(NCc4cccc(Cl)c4)ncnc32)[C@H](O)[C@@H]1O`, in data set [1], the concentration for half-maximal inhibition (IC50) is 5.76 µM.
Consider `COc1cccc(CNc2ncnc3c2ncn3[C@@H]2O[C@H](CNCc3ccc(C(F)(F)F)cc3)[C@@H](O)[C@H]2O)c1`, for which, in [1], the IC50 worked out at 7.5 µM.
With `C[C@@]1(O)[C@H](O)[C@@H](CO)O[C@H]1n1cnc2c(N)ncnc21`, in data set [5], the half-inhibitory concentration (IC50) worked out at 1.76 µM.
Turning to `Nc1ncnc2c1ncn2[C@@H]1O[C@H](CNCc2ccc(C(F)(F)F)cc2)[C@@H](O)[C@H]1O`, the concentration for half-maximal inhibition (IC50) in [1] is more than 50 µM.
Turning to `O[C@@H]1[C@H](O)[C@@H](CN2CCCCC2)O[C@H]1n1cnc2c(NCc3cccc(Cl)c3)ncnc21`, in data set [1], the IC50 is more than 50 µM.
Same read-out and setting: the same measure for `O[C@@H]1[C@H](O)[C@@H](CNCc2ccc(C(F)(F)F)cc2)O[C@H]1n1cnc2c(NCc3ccccc3Cl)ncnc21`: more than 50 µM.
Still for that read-out and setting: the same measure for `O[C@@H]1[C@H](O)[C@@H](CNCc2ccc(C(F)(F)F)cc2)O[C@H]1n1cnc2c(NCc3ccc(Cl)cc3)ncnc21`: more than 50 µM; for `CC1CCCCN1C[C@H]1O[C@@H](n2cnc3c(NCc4cccc(Cl)c4)ncnc32)[C@H](O)[C@@H]1O` (some centres undefined): 5.67 µM; for `O[C@@H]1[C@H](O)[C@@H](CNCc2ccccc2)O[C@H]1n1cnc2c(NCc3cccc(Cl)c3)ncnc21`: 4.57 µM.
For `O[C@@H]1[C@H](O)[C@@H](CNCc2ccc(F)cc2)O[C@H]1n1cnc2c(NCc3cccc(Cl)c3)ncnc21`, the IC50 in data set [1] worked out at 3.35 µM.
The same measure, in the same setting: to `O[C@@H]1[C@H](O)[C@@H](CNCc2ccc(C(F)(F)F)cc2)O[C@H]1n1cnc2c(NCC3CCC3)ncnc21` belongs more than 50 µM; to `Oc1ccc(CNC[C@H]2O[C@@H](n3cnc4c(NCc5cccc(Cl)c5)ncnc43)[C@H](O)[C@@H]2O)cc1`, 25.8 µM; to `O[C@@H]1[C@H](O)[C@@H](CN2CCCC2)O[C@H]1n1cnc2c(NCc3cccc(Cl)c3)ncnc21`, 17.5 µM.
On the same count and under the same terms, the same measure for `O[C@@H]1[C@H](O)[C@@H](CNC2CCCCC2)O[C@H]1n1cnc2c(NCc3cccc(Cl)c3)ncnc21`: 5.28 µM; for `O[C@@H]1[C@H](O)[C@@H](CNCc2ccc(C(F)(F)F)cc2)O[C@H]1n1cnc2c(NCc3cccc(C(F)(F)F)c3)ncnc21`: more than 50 µM; for `CCNC[C@H]1O[C@@H](n2cnc3c(NCc4cccc(Cl)c4)ncnc32)[C@H](O)[C@@H]1O`: 14.7 µM.
On the same count and under the same terms, the same measure for `O[C@@H]1[C@H](O)[C@@H](CNCc2cccc(F)c2)O[C@H]1n1cnc2c(NCc3cccc(Cl)c3)ncnc21`: 5.76 µM.
As to `O[C@@H]1[C@H](O)[C@@H](CNCc2ccc(Cl)cc2)O[C@H]1n1cnc2c(NCc3cccc(Cl)c3)ncnc21`, the IC50 in data set [1] was found to be 2.7 µM.
As for `N#Cc1cccc(CNc2ncnc3c2ncn3[C@@H]2O[C@H](CNCc3ccc(C(F)(F)F)cc3)[C@@H](O)[C@H]2O)c1`, the IC50 in data set [1] is more than 50 µM.
Same read-out and setting: the same measure for `O[C@@H]1[C@H](O)[C@@H](CNCc2ccc(Br)cc2)O[C@H]1n1cnc2c(NCc3cccc(Cl)c3)ncnc21`: 2.2 µM.
The same measure, in the same setting: to `O[C@@H]1[C@H](O)[C@@H](CN2CCC3(CCNCC3)CC2)O[C@H]1n1cnc2c(NCc3cccc(Cl)c3)ncnc21` belongs more than 50 µM; to `CC1CCN(C[C@H]2O[C@@H](n3cnc4c(NCc5cccc(Cl)c5)ncnc43)[C@H](O)[C@@H]2O)CC1`, 6.58 µM; to `O[C@@H]1[C@H](O)[C@@H](CNCc2ccc3ccccc3c2)O[C@H]1n1cnc2c(NCc3cccc(Cl)c3)ncnc21`, 1.45 µM.
Consider `O[C@@H]1[C@H](O)[C@@H](CN2CCOCC2)O[C@H]1n1cnc2c(NCc3cccc(Cl)c3)ncnc21`, for which the IC50 in [1] was more than 50 µM.
The same measure, in the same setting: to `CC(C)NC[C@H]1O[C@@H](n2cnc3c(NCc4cccc(Cl)c4)ncnc32)[C@H](O)[C@@H]1O` belongs 6.36 µM.
Still for that read-out and setting: the same measure for `O[C@@H]1[C@H](O)[C@@H](CNCc2ccncc2)O[C@H]1n1cnc2c(NCc3cccc(Cl)c3)ncnc21`: more than 50 µM; for `CC(C)N1CCN(C[C@H]2O[C@@H](n3cnc4c(NCc5cccc(Cl)c5)ncnc43)[C@H](O)[C@@H]2O)CC1`: more than 50 µM; for `O[C@@H]1[C@H](O)[C@@H](CNC2CCC2)O[C@H]1n1cnc2c(NCc3cccc(Cl)c3)ncnc21`: 7.28 µM.
Turning to `O=[N+]([O-])c1ccc(CNC[C@H]2O[C@@H](n3cnc4c(NCc5cccc(Cl)c5)ncnc43)[C@H](O)[C@@H]2O)cc1`, the IC50 in data set [1] was 7.52 µM.
In the case of `OC1CCN(C[C@H]2O[C@@H](n3cnc4c(NCc5cccc(Cl)c5)ncnc43)[C@H](O)[C@@H]2O)CC1`, the concentration for half-maximal inhibition (IC50) in [1] is more than 50 µM.
In data set [6], `CC1CCCN(C[C@H]2O[C@@H](n3cnc4c(NCc5cccc(Cl)c5)ncnc43)[C@H](O)[C@@H]2O)C1` (some centres undefined) displayed a mean residence time MRT of 3.95 h. For the same compound, the Activity entry in data set [7] and in [8] was “Non-Toxic” throughout. Also, in data set [9], the half-life is 3.56 h. In addition, the half-maximal inhibitory concentration (IC50) in data set [1] came to 1.4 µM. The time to peak (Tmax) in data set [10] was determined as 0.5 h. In data set [11], this compound gave a Cmax of 837 ng/mL. Moreover, the LD50 at 336 h in [12] is more than 200 mg/kg. The AUC(0-t) at 24 h in [13] is 2910 ng·h/mL.
As to `CCN1CCN(C[C@H]2O[C@@H](n3cnc4c(NCc5cccc(Cl)c5)ncnc43)[C@H](O)[C@@H]2O)CC1`, the concentration for half-maximal inhibition (IC50) in [1] is more than 50 µM.
Regarding `O[C@@H]1[C@H](O)[C@@H](CNCc2ccc(C(F)(F)F)cc2)O[C@H]1n1cnc2c(NCc3cccs3)ncnc21`, the half-inhibitory concentration (IC50) in data set [1] is more than 50 µM.
For `CCOC(=O)C1CCN(C[C@H]2O[C@@H](n3cnc4c(NCc5cccc(Cl)c5)ncnc43)[C@H](O)[C@@H]2O)CC1`, in data set [1], the IC50 worked out at 26.8 µM.

A word on the IC50: it is the concentration at which inhibition is half-maximal. In general, inhibition refers to how much of the control response was suppressed. A higher inhibition goes with strong suppression. In general, MRT refers to a mean duration of stay, worked out from the concentration-time curve. Broadly, the half-life is how long it takes for the measured level to halve. A word on the Tmax: it is the time from dosing to the highest level. Broadly, the Cmax is the maximum level reached in the sampled fluid or tissue. The term LD50 denotes the dose expected to kill half of the subjects tested. By AUC(0-t) is commonly meant the area under the concentration-time curve up to a stated or last time point.
